In US4264620A, “Antihypertensive 5-substituted 2-pyrrolidinecarboxylic acids” (Santen Pharmaceutical Co., Ltd., priority 1978, dated 1981):

Experiments:
[1] = test system: contractile response of isolated guinea-pig ileum to angiotensin I; experiment: Inhibition of contractile response of isolated guinea-pig ileum to angiotensin I (bioassay of angiotensin-converting enzyme inhibitory activity); details: angiotensin I 0.1 μg/ml, Tyrode's solution 30° C., compound added 5 minutes before, read-out: Angiotensin I IC50: concentration of compound producing 50% inhibition of the contractive action of angiotensin I on the guinea-pig ileum
Text: As the method of measurement of angiotensin-converting enzyme activity, bioassay for the contractile response of isolated smooth muscle or the pressor response of normal animals and biochemical assay for the enzyme isolated from lung or other organs of animals are known. The former is found more advantageous than the latter for the examination of the convertion of angiotensin I to angiotensin II in vivo.
In the present study, therefore, we adopted the bioassay for contractile response of isolated guinea-pig ileum to angiotensin I.
(§1) Isolated guinea-pig ileum was suspended in the organ bath containing 20 ml of Tyrode's solution of 30° C. gassed with 95% O2 +5% CO2. The contraction induced by the addition of angiotensin I (0.1 μg/ml) at intervals of 10 minutes was recorded on a recticorder (Nihon Koden) for 90 seconds using FD pick up (ST-1T-H, Nihon Koden).
(§2) The test compounds were added to the bath 5 minutes before the addition of angiotensin I.
The inhibitory activity of angiotensin-converting enzyme was calculated by the following formula. [formula]

[2] = test system: contractile response to bradykinin; experiment: Augmentation of contractile response of isolated guinea-pig ileum to bradykinin; details: bradykinin 0.005 μg/ml, compound added 5 minutes before, read-out: Bradykinin AC50: concentration of compound producing 50% augmentation of the contractive action of bradykinin on the guinea-pig ileum
Method: as §1, §2
From the fact that kininase II, which destroys bradykinin having contractile action of isolated guinea-pig ileum, is thought to be identical with angiotensin-converting enzyme, augmentation of the contractile response to bradykinin by test compounds was examined by using bradykinin (0.005 μg/ml) in place of angiotensin I according to the above mentioned method.

[3] = molecular target: T1, angiotensin-converting enzyme (Oryctolagus cuniculus, UniProt P12822); experiment: Inhibitory activity of angiotensin-converting enzyme extracted from rabbit lung (spectrophotometry, HHL substrate); assay type: biochemical; details: 5 mM HHL, pH 8.3, 37° C., 30 minutes, read-out: Angiotensin-converting enzyme IC50: concentration of compound producing 50% inhibition against angiotensin-converting enzyme
T1 construct: extracted from rabbit lung; from tissue; host or cells: rabbit lung
T1 sequence (P12822 34-1310): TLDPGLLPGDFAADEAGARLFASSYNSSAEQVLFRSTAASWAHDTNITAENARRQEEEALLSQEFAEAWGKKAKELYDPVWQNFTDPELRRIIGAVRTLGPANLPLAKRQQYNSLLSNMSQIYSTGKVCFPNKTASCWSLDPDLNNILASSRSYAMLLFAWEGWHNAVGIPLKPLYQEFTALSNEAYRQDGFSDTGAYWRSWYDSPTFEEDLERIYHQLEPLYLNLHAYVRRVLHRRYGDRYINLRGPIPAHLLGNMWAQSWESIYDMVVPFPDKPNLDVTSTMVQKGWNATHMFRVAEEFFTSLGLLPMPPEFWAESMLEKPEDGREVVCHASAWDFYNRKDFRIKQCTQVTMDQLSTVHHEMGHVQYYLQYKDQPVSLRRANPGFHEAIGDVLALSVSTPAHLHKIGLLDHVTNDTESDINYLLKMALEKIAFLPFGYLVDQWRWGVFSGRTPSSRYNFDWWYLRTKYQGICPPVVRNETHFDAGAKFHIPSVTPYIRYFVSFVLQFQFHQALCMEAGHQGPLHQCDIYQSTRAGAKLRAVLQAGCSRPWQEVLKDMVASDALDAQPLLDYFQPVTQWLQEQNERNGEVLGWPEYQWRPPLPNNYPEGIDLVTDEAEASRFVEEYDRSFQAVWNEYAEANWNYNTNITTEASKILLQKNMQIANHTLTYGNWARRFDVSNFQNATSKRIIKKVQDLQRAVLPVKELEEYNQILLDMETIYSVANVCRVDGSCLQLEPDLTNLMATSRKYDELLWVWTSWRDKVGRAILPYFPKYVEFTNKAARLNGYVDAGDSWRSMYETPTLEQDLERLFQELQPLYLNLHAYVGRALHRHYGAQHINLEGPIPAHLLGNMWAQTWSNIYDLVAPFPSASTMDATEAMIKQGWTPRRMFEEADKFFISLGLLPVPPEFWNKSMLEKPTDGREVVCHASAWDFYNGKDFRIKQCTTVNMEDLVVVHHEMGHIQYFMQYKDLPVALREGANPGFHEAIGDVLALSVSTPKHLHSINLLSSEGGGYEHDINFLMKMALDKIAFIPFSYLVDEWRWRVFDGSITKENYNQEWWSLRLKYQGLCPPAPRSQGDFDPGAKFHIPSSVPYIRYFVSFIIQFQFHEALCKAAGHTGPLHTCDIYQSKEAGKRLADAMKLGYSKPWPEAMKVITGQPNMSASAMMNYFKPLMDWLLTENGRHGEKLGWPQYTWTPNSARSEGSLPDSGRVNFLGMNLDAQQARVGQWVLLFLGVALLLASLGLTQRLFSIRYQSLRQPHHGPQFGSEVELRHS
Method: The activity of angiotensin-converting enzyme was measured by spectrophotometry according to the method of Biochem. Pharmacol., 20. 1637 (1971). That is, the absorbance of hippuric acid was measured, which is liberated by incubating hippuryl-L-histidyl-L-leucine (HHL) as substrate in the presence of angiotensin-converting enzyme extracted from rabbit lung. The reaction mixture is as follows: 100 mM phosphate buffer (pH 8.3) 300 mM sodium chloride 5 mM HHL […] enzyme inhibitor 5 mU enzyme 0.25 ml of the above mixture was incubated at 37° C. for 30 minutes and the reaction was stopped by adding 0.25 ml of 1 N hydrochloric acid. […] The absorbance of this solution was measured at 228 nm.

Acute toxicity test = assay type: in vivo; details: mouse, in vivo, ip
Method: (§3) The male ddy-std strain mice (4 weeks of age, weighing 19-21 g) were placed in a breeding room of constant temperature and humidity (23±1° C., 55±5%) and fed freely pellet diet (CE-2, Clea Japan Inc.) and water ad. libitum for a week. The mice showing the normal growth were selected for the experiment.
(§4) Test compounds are suspended in 0.5% tragacanth solution, and administered intraperitoneally in a dose of 0.5 ml of 20 g body weight.

male ddy-std strain mice = experiment: Acute toxicity test; assay type: in vivo; details: male ddy-std mice, intraperitoneally
Method: as §3, §4

Row | SMILES | IC50 [1] [nM] | AC50 [2] [nM] | IC50 [3] [nM] | LD50 (Acute toxicity test) [mg/kg] | Acute toxicity (result in words) (male ddy-std strain mice)
1 | O=C(O)C1CCC(c2ccc(O)cc2)N1C(=O)CCS (stereo not drawn) [Compound B, α-5-(4-hydroxyphenyl)-1-(3-mercaptopropanoyl)-2-pyrrolidinecarboxylic acid] | 480 | 9.8 | 440 | – | –
2 | O=C(O)C1CCC(c2ccccc2O)N1C(=O)CCS (stereo not drawn) [Compound E, α1-5-(2-hydroxyphenyl)-1-(3-mercaptopropanoyl)-2-pyrrolidinecarboxylic acid] | 76 | 0.95 | 65 | – | –
3 | O=C(O)C1CCC(c2ccccc2O)N1C(=O)CCS (stereo not drawn) [Compound A, α-5-(2-hydroxyphenyl)-1-(3-mercaptopropanoyl)-2-pyrrolidinecarboxylic acid] | 170 | 1.8 | 560 | 1000 to 1250 | low
4 | C[C@H](CS)C(=O)N1C(C(=O)O)CCC1c1ccccc1O (single isomer, unassigned) [Compound D] | 150 | 2.6 | 1200 | – | –
5 | C[C@H](CS)C(=O)N1CSC[C@H]1C(=O)O [Compound Z, (4R)-3-[(2S)-3-mercapto-2-methylpropanoyl]-4-thiazolidinecarboxylic acid, reference compound] | 170 | 2.6 | – | – | –
6 | C[C@H](CS)C(=O)N1C(C(=O)O)CCC1c1ccccc1O (single isomer, unassigned) [Compound C] | 160 | 2 | 1100 | – | –
